PMC9587031, “Antibiotic polymyxin arranges lipopolysaccharide into crystalline structures to solidify the bacterial membrane” (Nature Communications, 2022)
Converted amounts (≈) assume the structure as drawn. Positions of bridges follow the written chain, without caps; N, C: chain ends. Non-standard residues stand in square brackets, D forms with d. Residues, ends and D or L forms follow the SMILES beside them. *: point of attachment. Heptanoyl(6-Me) = CC(C)CCCCC(=O)*; Dab = NCC[C@H](N)C(=O)O

How the values were obtained:
E. coli MG1655 WT = experiment: MIC, automated multi-well growth assay; assay type: cell-based, Escherichia coli; settings: for MIC: MG1655, 10 h
Protocol: All titration assays to measure the growth curve of E. coli MG1655 strains at different polymyxin concentrations were performed on a Tecan EVO 200 robotic platform in 96-well plates (cell culture microplates 96 well µClear® CELLSTAR®, Greiner Bio-One GmbH). Plates with serial dilutions of the tested polymyxin derivatives were prepared and overnight cultures of the strains were combined to a final OD600 ≈ 0.05. Titration culture plates were placed in a shaking platform equipped with a Kuhner ES-X shaking module (Adolf Kühner AG) mounted inside an aluminum housing (Tecan) and temperature-controlled using an “Icecube” (Life Imaging Services). Titration cultures were grown for 10 h at 37 °C with shaking at 300 rpm in clear-bottom 96-well plates, which were sealed with peelable foil with small slits (Agilent) to prevent liquid evaporation and guarantee sterility. OD600 measurements were recorded using a Tecan Infinite M200 Pro plater reader.

[1] = system: OM patches from E. coli MG1655 WT strain; experiment: AFM imaging of crystalline structure formation on OM patches; set-up: species or system Escherichia coli; settings: DPBS supplemented with 5 mM Mg2+ (MgCl2)
Protocol: E. coli MG1655 strains were transformed with the pY200 plasmid that carries an mCherry gene preceded by the periplasmic export signal of the skp protein under control of the lux promoter. This construct enables over-expression of mCherry into the periplasmic space, which in turn increases the OMV production. Cultures were grown in LB medium (Difco) with 50 µg/ml spectinomycin (Fischer Scientific) at 37 °C. Expression of mCherry was induced at an OD600 ≈ 0.4 by N-(β ketocaproyl)-L-homoserine lactone (HSL, Cayman Chemical). After induction, the cultures were grown until they reached the early stationary phase, and bacteria were removed by centrifugation at 10,000 g for 10 min. […]
OMVs produced from different E. coli MG1655 strains were adsorbed onto freshly cleaved mica for 15 min in DPBS buffer at room temperature. […] The images were recorded using two different AFM cantilevers: PEAKFORCE‐HiRs‐F‐A (Bruker) with a nominal spring constant of 0.4 N/m, a resonance frequency of ≈ 165 kHz in liquid, and a sharpened silicon tip with a nominal radius of ≈ 1 nm or SCANASYST-FLUID + (Bruker) with a nominal spring constant of 0.7 N/m, a resonance frequency of ≈ 150 kHz in liquid, and a sharpened silicon tip with a nominal radius of ≈ 2 nm. […] Images were recorded at 2 kHz oscillation frequency, by applying an imaging force of 100–120 pN with a vertical amplitude of 30 nm. […]

[2] = system: E. coli K-12 MG1655 empty vector and vector-free controls; experiment: Colistin MIC, validation of plasmid pAH213_mcr1, controls; assay type: cell-based, Escherichia coli
Excerpt: (§1) In order to confer colistin resistance to the E. coli K-12 MG1655 strain and derivatives, an mcr-1 gene together with its native promoter region was cloned onto the pBR322 plasmid backbone, creating pAH213_mcr1. Briefly, the mcr-1 gene of colistin-resistant E. coli strain 2 HS-C was identified as gene E4F32_22195 on plasmid p2HS-C-1 (GenBank CP038181.1) and amplified together with ≈ 400 nucleotides of its immediate upstream region using primers prAH2159 and prAH2160. The backbone of pBR322 without its tetracycline resistance cassette was amplified using primers prAH1981 and prAH1982. Using 25 bp overhangs to the backbone included in prAH2159 / prAH2160, insert and backbone were ligated using Gibson assembly. The resulting plasmid pAH213_mcr1 confers colistin resistance to the E. coli K-12 MG1655 strain with a minimal inhibitory concentration of 5 µg/ml (empty vector and vector-free controls: 0.5 µg/ml). Robust growth of the E. coli K-12 MG1655 strains carrying pAH213_mcr1 was observed up to a concentration of 3 µg/ml. The plasmids were transferred to the cells using the transformation and storage solution (TSS) method.

[3] = system: E. coli K-12 MG1655 carrying pAH213_mcr1; experiment: Colistin MIC, validation of plasmid pAH213_mcr1; assay type: cell-based, Escherichia coli
Excerpt: as §1

E. coli MG1655 MCR-1 = experiment: MIC, automated multi-well growth assay; assay type: cell-based, Escherichia coli; settings: E. coli MG1655 containing the MCR-1 plasmid, growth curves (Fig. 1b)
Excerpt: as §1, with “The plasmids were transferred to the cells using the transformation and storage solution (TSS) method.” left out
All titration assays to measure the growth curve of E. coli MG1655 strains at different polymyxin concentrations were performed on a Tecan EVO 200 robotic platform in 96-well plates (cell culture microplates 96 well µClear® CELLSTAR®, Greiner Bio-One GmbH). […] OD600 measurements were recorded using a Tecan Infinite M200 Pro plater reader.

| MIC (E. coli MG1655 WT) | Compound | polymyxin E concentration at which crystalline structures formed [1] | minimal inhibitory concentration [2] | MIC from bacterial growth curves (E. coli MG1655 WT; E. coli K-12 MG1655 WT, growth curves with increasing antibiotic concentration (Fig. 1b)) | concentration up to which robust growth was observed ([3]; E. coli K-12 MG1655 strains carrying pAH213_mcr1) | minimal inhibitory concentration ([3]; E. coli K-12 MG1655 with plasmid pAH213_mcr1) | polymyxin E concentration in which the strain was able to grow (E. coli MG1655 MCR-1) |
| --- | --- | --- | --- | --- | --- | --- | --- |
| 8 µg/mL (≈ 7.77 µM) | CC(C)C[C@@H]1NC(=O)[C@@H](CC(C)C)NC(=O)[C@H](CCN)NC(=O)[C@@H](NC(=O)[C@H](CCN)NC(=O)[C@@H](NC(=O)[C@@H](N)CCN)[C@@H](C)O)CCNC(=O)[C@H]([C@@H](C)O)NC(=O)[C@H](CCN)NC(=O)[C@H](CCN)NC1=O [Polymyxin E intermediate-length] (H-[Dab]T[Dab][Dab][Dab][dL]L[Dab][Dab]T; lactam 4-C) | – | – | – | – | – | – |
| 32 µg/mL (≈ 27.7 µM) | CC(C)CCCCC(=O)N[C@@H](CCN)C(=O)N[C@H](C(=O)N[C@@H](CCN)C(=O)N[C@H]1CCNC(=O)[C@@H]([C@H](C)O)NC(=O)[C@H](CCN)NC(=O)[C@H](CCN)NC(=O)[C@H](CC(C)C)NC(=O)[C@@H](CC(C)C)NC(=O)[C@H](CCN)NC1=O)[C@@H](C)O [Polymyxin E with stereochemistry change] ({Heptanoyl(6-Me)}-[Dab]T[Dab][Dab][Dab][dL]L[Dab][Dab][dT]; lactam 4-C) | – | – | – | – | – | – |
| – | Polymyxin E | 1.2 mg/L | 0.5 µg/mL | 0.5 to 1 µg/mL | ≤ 3 µg/mL | 5 µg/mL | 32 mg/L |
